Assay results published in patent US8821850B2, “Protein-polymer-drug conjugates” (Mersana Therapeutics, Inc., priority 2011, dated 2014).
Read-outs that look alike come from different tables or passages of the source. Square brackets hold non-standard residues; d marks the D form. Peptide text beside a SMILES is read from it. * marks the point of attachment. Dolaproine = CO[C@@H]([C@@H]1CCCN1)[C@@H](C)C(=O)O; Dil = CC[C@H](C)[C@H](NC)[C@@H](CC(=O)O)OC; NMe2Val = CC(C)[C@@H](C(=O)*)N(C)C; X1 = C[C@H](N)C(=O)OCCCN*

How the values were obtained:
Format in all cases: cell-based
[1] = system: HER2 expressing cells BT474; assay: Cell viability assay (Cell Titer-Glo), BT474; settings: read-out: BT474 IC50
Protocol: (§1) PBRM-drug polymer conjugates were evaluated for their tumor viability using Cell Titer-Glo (Promega Corp). Cells were plated in black walled 96-well plate and allowed to adhere overnight at 37° C. in a humidified atmosphere of 5% CO2. HER2 expressing cells SKBR3, BT474, NCI-N87 and cells expressing low levels of HER2-MCF7 were plated at a density of 5,000 cells per well. The next day the medium was replaced with 50 μL fresh medium and 50 μL of 2× stocks of PBRM-drug polymer conjugate, drug polymer conjugate or drug were added to appropriate wells, mixed and incubated for 72 h. Cell Titer-Glo reagent was added to the wells at room temperature and the luminescent signal was measured after 10 min using a SpectraMax M5 plate reader (Molecular Devices). Dose response curves were generated using SoftMax Pro software. IC50 values were determined from four-parameter curve fitting.

[2] = system: cells expressing low levels of HER2-MCF7; assay: Cell viability assay (Cell Titer-Glo), MCF7
Protocol: as §1

[3] = system: HER2 expressing cells SKBR3; assay: Cell viability assay (Cell Titer-Glo), SKBR3
Protocol: as §1

[4] = system: HER2 expressing cells NCI-N87; assay: Cell viability assay (Cell Titer-Glo), NCI-N87; settings: read-out: N87 IC50
Protocol: as §1

[5] = Homo sapiens, MCF7, 72 h, read-out: MCF7 IC50, Table II
[6] = Table XIII, 72 h, conjugates with high drug loading
[7] = Table XIII, 72 h, conjugates with high drug loading, read-out: MCF7 IC50
[8] = Table XIII, 72 h, conjugates with high drug loading, read-out: SKBR3 IC50
[9] = Table XII, 72 h, conjugates with PBRM MW<80 kDa, read-out: MCF7 IC50
[10] = Table XII, 72 h, conjugates with PBRM MW<80 kDa, read-out: SKBR3 IC50

Compound | IC50 ([1]; Homo sapiens, BT-474, 72 h) [nM] | IC50 [1, 6] [nM] | IC50 [2, 7] [nM] | IC50 [3, 8] [nM] | IC50 [4, 6] [nM] | further results
CCC1(O)C[C@H]2C[N@](CCc3c([nH]c4ccccc34)[C@@](C(=O)OC)(c3cc4c(cc3OC)N(C)C3C45CCN4CC=C[C@](CC)(C45)[C@@H](O)[C@]3(O)C(=O)NC[C@H](C)O)C2)C1 (stereo partly drawn) [Example 22, (S)-2HPV] | 0.41 |  |  |  |  | IC50 [2, 5]: 1.83 nM
CCC1(O)C[C@H]2C[N@](CCc3c([nH]c4ccccc34)[C@@](C(=O)OC)(c3cc4c(cc3OC)N(C)C3C45CCN4CC=C[C@](CC)(C45)[C@@H](O)[C@]3(O)C(=O)NC[C@@H](C)O)C2)C1 (stereo partly drawn) [Example 23, (R)-2HPV] | 0.39 |  |  |  |  | IC50 [2, 5]: 1.71 nM; IC50 ([3]; Homo sapiens, SK-BR-3, 72 h, read-out: SKBR3 IC50, Table II): 0.71 nM
47 kDa PHF-BA-(AF HPA-L-Alanine)-SS-Rituximab [Example 94, Conjugate D] |  | 1.1 | 8.8 | 0.26 | 10.9 | 
22 kDa PHF-BA-(AF HPA)-SS-Rituximab [Example 94, Conjugate C] |  | 2.82 | 4.17 |  | 5.84 | 
22 kDa PHF-BA-(AF HPA-L-Alanine)-SS-Trastuzumab [Example 94, Conjugate A] |  | 0.05 | 9.5 | 0.008 | 0.12 | 
156 kDa PHF-BA (AF HPA-L-Alanine)-SS-(Trastuzumab-Fab′) [Example 96 Conjugate B] |  |  |  |  |  | IC50 [2, 9]: > 100 nM; IC50 [3, 10]: 1 nM
CC[C@H](C)[C@@H]([C@@H](CC(=O)N1CCC[C@H]1[C@H](OC)[C@@H](C)C(=O)N[C@@H](Cc1ccccc1)C(=O)NCCCOC(=O)[C@H](C)N)OC)N(C)C(=O)[C@@H](NC(=O)[C@H](C(C)C)N(C)C)C(C)C [Example 50, AF HPA-L-Alanine] (NMe2Val-V[Dil][Dolaproine]F-X1) | 0.85 |  |  |  |  | IC50 ([2]; Homo sapiens, MCF7, 72 h, read-out: MCF7 IC50, Table XIII, conjugates with high drug loading): 8.5 nM; IC50 ([2]; read-out: MCF7 IC50, Table XIII, 72 h, conjugates with high drug loading): 8.2 nM; IC50 ([3]; Homo sapiens, SK-BR-3, 72 h, read-out: SKBR3 IC50, Table XIII, conjugates with high drug loading): 0.32 nM; IC50 ([4]; Homo sapiens, NCI-N87, 72 h): 1.6 nM
47 kDa PHF-BA-(AF HPA-L-Alanine)-SS-Trastuzumab [Example 94, Conjugate B] |  | < 0.05 | 7.4 | < 0.05 | ~0.3 | 
105 kDa PHF-BA (AF HPA-L-Alanine)-SS-(Trastuzumab-Fab′) [Example 96 Conjugate A] |  |  |  |  |  | IC50 [2, 9]: > 100 nM; IC50 [3, 10]: 0.6 nM
